# Patent publication US10544143B2, “4-azaindole compounds” (BRISTOL-MYERS SQUIBB COMPANY, priority 2017, dated 2020)
# Like-named read-outs stand apart in the source and are kept apart here.
# How the values were obtained:
# human TLR9 = human TLR9 (Homo sapiens (Human), UniProt Q9NR96); experiment: TLR9 inhibition reporter assay (HEK-Blue SEAP);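 also: SEAP driven by an IFN-β minimal promoter with NF-κB and AP-1 sites, read after 22 h, compounds dosed 0.05 nM–50 µM, inhibition scaled between agonist plus DMSO and reference-inhibitor wells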
# Chain of human TLR9 (Q9NR96 26-1032): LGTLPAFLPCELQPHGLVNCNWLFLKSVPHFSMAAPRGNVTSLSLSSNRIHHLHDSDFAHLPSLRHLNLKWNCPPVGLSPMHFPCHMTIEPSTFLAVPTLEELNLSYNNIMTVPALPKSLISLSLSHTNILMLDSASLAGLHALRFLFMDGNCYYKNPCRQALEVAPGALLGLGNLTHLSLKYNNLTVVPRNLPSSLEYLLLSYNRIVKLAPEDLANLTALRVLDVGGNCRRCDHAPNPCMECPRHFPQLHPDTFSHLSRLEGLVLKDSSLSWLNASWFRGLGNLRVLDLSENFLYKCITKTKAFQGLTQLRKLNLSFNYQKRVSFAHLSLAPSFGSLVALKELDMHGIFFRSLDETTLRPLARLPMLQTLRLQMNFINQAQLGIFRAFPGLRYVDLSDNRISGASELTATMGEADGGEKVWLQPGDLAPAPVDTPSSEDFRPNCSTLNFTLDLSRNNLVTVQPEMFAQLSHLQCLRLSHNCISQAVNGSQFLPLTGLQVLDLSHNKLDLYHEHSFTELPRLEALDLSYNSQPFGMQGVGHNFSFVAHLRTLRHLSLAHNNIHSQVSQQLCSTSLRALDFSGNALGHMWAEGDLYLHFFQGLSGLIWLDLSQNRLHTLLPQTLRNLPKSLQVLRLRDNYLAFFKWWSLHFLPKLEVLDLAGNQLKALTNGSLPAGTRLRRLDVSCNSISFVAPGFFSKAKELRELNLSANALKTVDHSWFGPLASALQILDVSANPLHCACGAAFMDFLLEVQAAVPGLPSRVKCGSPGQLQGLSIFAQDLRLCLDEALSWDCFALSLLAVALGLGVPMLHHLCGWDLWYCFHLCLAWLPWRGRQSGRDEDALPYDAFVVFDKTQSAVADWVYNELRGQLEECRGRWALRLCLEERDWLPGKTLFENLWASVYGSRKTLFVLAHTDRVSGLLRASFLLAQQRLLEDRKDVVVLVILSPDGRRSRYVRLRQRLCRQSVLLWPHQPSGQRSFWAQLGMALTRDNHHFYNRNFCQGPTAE
# human TLR8 = human TLR8 (Homo sapiens (Human), UniProt Q9NR97); experiment: TLR8 inhibition reporter assay (HEK-Blue SEAP);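 also: SEAP driven by IFN-β minimal promoter carrying NF-κB and AP-1 sites, compounds dosed 0.05 nM to 50 µM for 22 h, inhibition scaled between agonist-plus-DMSO and reference-inhibitor wells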
# Chain of human TLR8 (Q9NR97 27-1041): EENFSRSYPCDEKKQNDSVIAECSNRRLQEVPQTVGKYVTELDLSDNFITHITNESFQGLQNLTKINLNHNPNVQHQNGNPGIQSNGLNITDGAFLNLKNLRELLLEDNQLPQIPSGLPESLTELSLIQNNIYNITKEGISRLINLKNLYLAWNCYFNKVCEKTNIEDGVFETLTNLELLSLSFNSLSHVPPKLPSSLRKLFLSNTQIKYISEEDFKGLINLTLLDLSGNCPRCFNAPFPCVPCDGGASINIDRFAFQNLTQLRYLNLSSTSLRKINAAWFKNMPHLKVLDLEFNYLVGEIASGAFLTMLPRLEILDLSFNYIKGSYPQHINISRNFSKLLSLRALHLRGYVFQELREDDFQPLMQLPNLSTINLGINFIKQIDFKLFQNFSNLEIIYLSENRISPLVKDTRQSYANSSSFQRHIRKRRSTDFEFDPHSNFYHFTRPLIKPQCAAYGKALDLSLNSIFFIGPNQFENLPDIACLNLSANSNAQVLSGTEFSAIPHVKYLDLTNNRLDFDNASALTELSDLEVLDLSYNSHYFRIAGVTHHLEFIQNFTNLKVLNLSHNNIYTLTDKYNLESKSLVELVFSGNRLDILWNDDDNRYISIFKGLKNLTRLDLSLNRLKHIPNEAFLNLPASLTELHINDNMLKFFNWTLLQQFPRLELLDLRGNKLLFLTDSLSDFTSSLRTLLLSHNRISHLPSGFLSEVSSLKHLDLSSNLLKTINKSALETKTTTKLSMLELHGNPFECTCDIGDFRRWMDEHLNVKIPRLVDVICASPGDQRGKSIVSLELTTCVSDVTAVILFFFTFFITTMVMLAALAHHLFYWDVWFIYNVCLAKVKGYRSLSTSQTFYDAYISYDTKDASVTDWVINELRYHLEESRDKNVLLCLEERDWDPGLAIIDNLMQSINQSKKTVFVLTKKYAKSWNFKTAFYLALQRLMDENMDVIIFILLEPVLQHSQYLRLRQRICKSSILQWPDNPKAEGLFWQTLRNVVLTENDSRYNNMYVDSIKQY
# human TLR7 = human TLR7 (Homo sapiens (Human), UniProt Q9NYK1); experiment: TLR7 inhibition reporter assay (HEK-Blue SEAP); type: cell-based
# Chain of human TLR7 (Q9NYK1 27-1049): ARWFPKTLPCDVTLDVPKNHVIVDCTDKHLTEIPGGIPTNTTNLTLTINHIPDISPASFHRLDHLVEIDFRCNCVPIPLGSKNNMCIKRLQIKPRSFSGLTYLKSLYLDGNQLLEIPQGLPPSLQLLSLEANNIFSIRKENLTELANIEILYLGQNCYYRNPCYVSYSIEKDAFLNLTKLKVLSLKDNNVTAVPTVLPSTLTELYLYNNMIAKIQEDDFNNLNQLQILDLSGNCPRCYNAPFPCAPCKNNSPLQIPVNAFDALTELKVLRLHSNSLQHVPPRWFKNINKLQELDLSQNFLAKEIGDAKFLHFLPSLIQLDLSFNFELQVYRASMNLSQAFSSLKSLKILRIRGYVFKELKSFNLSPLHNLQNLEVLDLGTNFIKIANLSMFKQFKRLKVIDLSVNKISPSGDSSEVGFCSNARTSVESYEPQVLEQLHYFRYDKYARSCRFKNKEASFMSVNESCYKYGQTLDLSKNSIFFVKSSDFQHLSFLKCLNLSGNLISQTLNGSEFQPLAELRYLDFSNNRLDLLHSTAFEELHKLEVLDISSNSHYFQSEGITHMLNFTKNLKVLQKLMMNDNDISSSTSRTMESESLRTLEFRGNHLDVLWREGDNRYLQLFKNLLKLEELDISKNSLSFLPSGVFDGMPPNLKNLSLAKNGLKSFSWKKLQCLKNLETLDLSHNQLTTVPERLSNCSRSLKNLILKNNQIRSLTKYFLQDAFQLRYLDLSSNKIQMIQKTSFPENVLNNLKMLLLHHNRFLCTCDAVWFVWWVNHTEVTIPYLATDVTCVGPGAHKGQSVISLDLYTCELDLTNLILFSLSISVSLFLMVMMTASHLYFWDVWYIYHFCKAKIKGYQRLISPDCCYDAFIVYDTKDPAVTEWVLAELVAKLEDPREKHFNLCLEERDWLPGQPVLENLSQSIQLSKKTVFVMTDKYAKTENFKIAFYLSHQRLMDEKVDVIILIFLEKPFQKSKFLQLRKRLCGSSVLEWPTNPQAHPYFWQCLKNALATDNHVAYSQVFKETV
# [1] = read-out: TLR9 IC50, HEK-Blue human TLR9 cells, ODN2006 5 nM
# [2] = read-out: TLR8 IC50, HEK-Blue human TLR8 cells, R848 15.9 μM
# [3] = HEK-Blue human TLR7 cells, gardiquimod 7.5 μM
# [4] = read-out: TLR9 IC50, HEK-Blue cells overexpressing human TLR9, SEAP reporter, ODN2006 5 nM
# [5] = read-out: TLR8 IC50, HEK-Blue cells overexpressing human TLR8, SEAP reporter, R848 15.9 μM
# [6] = HEK-Blue cells overexpressing human TLR7, SEAP reporter, gardiquimod 7.5 μM
# [7] = read-out: TLR9 IC50, HEK-Blue cells overexpressing human TLR9, ODN2006 5 nM stimulation, SEAP reporter
# [8] = read-out: TLR8 IC50, HEK-Blue cells overexpressing human TLR8, R848 15.9 μM stimulation, SEAP reporter
# [9] = HEK-Blue cells overexpressing human TLR7, gardiquimod 7.5 μM stimulation, SEAP reporter
Compound,IC50 (human TLR9; [4]),IC50 (human TLR8; [5]),IC50 (human TLR7; [6]),IC50 (human TLR9; [7]),IC50 (human TLR8; [8]),IC50 (human TLR7; [9]),also measured
CCNCC(=O)N1CCN(c2ccc3[nH]c(-c4cn5ncnc5c(C)c4C)c(C(C)C)c3n2)CC1 [Example 970],–,–,–,–,–,–,IC50 (human TLR9; [1]): 10700 nM; IC50 (human TLR8; [2]): 0.92 nM; IC50 (human TLR7; [3]): 3.1 nM
"COc1cc(-c2[nH]c3ccc(OC4CCC(N(C)C)CC4)nc3c2C(C)C)cn2ncnc12 (stereo not drawn) [Example 614, 4-((3-isopropyl-2-(8-methoxy-[1,2,4]triazolo[1,5-a]pyridin-6-yl)-1H-pyrrolo[3,2-b]pyridin-5-yl)oxy)-N,N-dimethylcyclohexan-1-amine]",1010 nM,13 nM,1.9 nM,–,–,–,–
Cc1c(-c2[nH]c3ccc(C4CCC(N(CCO)CC(=O)N(C)C)CC4)nc3c2C(C)C)cn2ncnc2c1C (stereo not drawn) [Example 463],16000 nM,24 nM,7.4 nM,–,–,–,–
COc1cc(-c2[nH]c3cc(C)c(C4CCC(N(C)CCC#N)CC4)nc3c2C(C)C)cn2ncnc12 (stereo not drawn) [Example 340],–,–,–,1870 nM,51 nM,1.4 nM,–
CNC1CCC(c2ccc3[nH]c(-c4cn(CC#N)c5ncccc45)c(C(C)C)c3n2)CC1 (stereo not drawn) [Example 263],–,–,–,338 nM,7.6 nM,6.2 nM,–
Cc1c(-c2[nH]c3ccc(N4C[C@@H](C)N(C(C)C)C[C@@H]4C)nc3c2C(C)C)cn2ncnc2c1C [Example 844],–,–,–,–,–,–,IC50 (human TLR9; [1]): 8820 nM; IC50 (human TLR8; [2]): 11 nM; IC50 (human TLR7; [3]): 2 nM
Cc1c(-c2[nH]c3ccc(C4CCC(NCC5(S(C)(=O)=O)CC5)CC4)nc3c2C(C)C)cn2ncnc2c1C (stereo not drawn) [Example 419],1740 nM,2.5 nM,4.1 nM,–,–,–,–
Cc1c(-c2[nH]c3ccc(C4CCN(C5CCOCC5)CC4)nc3c2C(C)C)cn(C)c(=O)c1C [Example 543],2280 nM,5.3 nM,14 nM,–,–,–,–
Cc1c(-c2[nH]c3ccc(C4CCC(=O)CC4)nc3c2C(C)C)cn2ncnc2c1C [Example 349],–,–,–,> 50000 nM,63 nM,7.7 nM,–
COc1cc(-c2[nH]c3ccc(C4CCC(N(C)CCC#N)CC4)nc3c2C(C)C)cn2ncnc12 (stereo not drawn) [Example 175],–,–,–,926 nM,2 nM,0.35 nM,–
COc1cc(-c2[nH]c3cc(C)c(C4CCC(N(C)Cc5ncn(C)n5)CC4)nc3c2C(C)C)cn2ncnc12 (stereo not drawn) [Example 333],–,–,–,1460 nM,12 nM,0.6 nM,–
COc1cc(-c2[nH]c3ccc(C4CCC(N(C)CCS(C)(=O)=O)CC4)nc3c2C(C)C)cn2ncnc12 (stereo not drawn) [Example 241],–,–,–,1750 nM,2.9 nM,2 nM,–
COc1cc(-c2[nH]c3ccc(C4CCC(NCc5cnc(C)cn5)CC4)nc3c2C(C)C)cn2ncnc12 (stereo not drawn) [Example 190],–,–,–,353 nM,2.8 nM,0.8 nM,–
CNC(=O)CN(C)C1CCC(c2ccc3[nH]c(-c4cn5ncnc5c(C)c4C)c(C(C)C)c3n2)CC1 (stereo not drawn) [Example 420],3530 nM,2.8 nM,1.2 nM,–,–,–,–
Cc1c(-c2[nH]c3ccc(N4CCN(C(=O)CN(CCO)C(C)(C)C)C[C@H]4C)nc3c2C(C)C)cn2ncnc2c1C [Example 953],–,–,–,–,–,–,IC50 (human TLR9; [1]): 12000 nM; IC50 (human TLR8; [2]): 5.3 nM; IC50 (human TLR7; [3]): 0.92 nM
CCn1cc(-c2[nH]c3ccc(C4CCC(N5CC6(COC6)C5)CC4)nc3c2C(C)C)c2cccnc21 (stereo not drawn) [Example 290],–,–,–,425 nM,6.3 nM,2.1 nM,–
Cc1c(-c2[nH]c3ccc(N4CC(N(C)C(=O)CN(C)C)C4)nc3c2C(C)C)cn2ncnc2c1C [Example 19],–,–,–,6020 nM,73 nM,125 nM,–
COc1cc(-c2[nH]c3ccc(C4CCC(NC(C)C5CC5)C4)nc3c2C(C)C)cn2ncnc12 (stereo not drawn) [Example 724],2190 nM,2 nM,0.63 nM,–,–,–,–
Cc1c(-c2[nH]c3ccc(CCC4CN(Cc5c[nH]nn5)C4)nc3c2C(C)C)cn2ncnc2c1C [Example 705],655 nM,15 nM,18 nM,–,–,–,–
COc1cc(-c2[nH]c3ccc(C4CC(NCCS(C)(=O)=O)C4)nc3c2C(C)C)cn2ncnc12 (stereo not drawn) [Example 634],2370 nM,3 nM,2 nM,–,–,–,–
COc1cc(-c2[nH]c3ccc(N4CCN(CCC(F)(F)F)CC4)nc3c2C(C)C)cn2ncnc12 [Example 116],–,–,–,35600 nM,5 nM,9.7 nM,–
COc1cc(-c2[nH]c3ccc(N4CCN(C(C)CO)CC4)nc3c2C(C)C)cn2ncnc12 (stereo not drawn) [Example 117],–,–,–,5640 nM,0.81 nM,1.4 nM,–

Compound,IC50 (human TLR9; [4]),IC50 (human TLR8; [5]),IC50 (human TLR7; [6]),IC50 (human TLR9; [7]),IC50 (human TLR8; [8]),IC50 (human TLR7; [9]),also measured
Cc1c(-c2[nH]c3ccc(N4CCC(NC5CCC5)CC4)nc3c2C(C)C)cn2ncnc2c1C [Example 57],–,–,–,5070 nM,1.3 nM,7.4 nM,–
CNC1CCC(c2ccc3[nH]c(-c4cn(C)c5nccnc45)c(C(C)C)c3n2)CC1 (stereo not drawn) [Example 297],–,–,–,885 nM,15 nM,8.4 nM,–
Cc1cc(-c2[nH]c3ccc(C4CCC(NC5COC5)CC4)nc3c2C(C)C)cc(C)n1 (stereo not drawn) [Example 282],–,–,–,661 nM,0.91 nM,0.32 nM,–
Cc1c(-c2[nH]c3ccc(N4CCN(C(=O)CN5CCCC5)C[C@@H]4C)nc3c2C(C)C)cn2ncnc2c1C [Example 825],–,–,–,–,–,–,IC50 (human TLR9; [1]): 6280 nM; IC50 (human TLR8; [2]): 1.1 nM; IC50 (human TLR7; [3]): 0.53 nM
Cc1c(-c2[nH]c3ccc(C4CC(NCCS(C)(=O)=O)C4)nc3c2C(C)C)cn2ncnc2c1C (stereo not drawn) [Example 624],2570 nM,2 nM,3 nM,–,–,–,–
"CCCN1CCC(COc2ccc3[nH]c(-c4cc(OC)c5ncnn5c4)c(C(C)C)c3n2)CC1 [Example 606, 6-(3-isopropyl-5-((1-propylpiperidin-4-yl)methoxy)-1H-pyrrolo[3,2-b]pyridin-2-yl)-8-methoxy-[1,2,4]triazolo[1,5-a]pyridine]",1710 nM,3.9 nM,2.3 nM,–,–,–,–
COc1cc(-c2[nH]c3ccc(N4CC(NCC5(C)COC5)C4)nc3c2C(C)C)cn2ncnc12 [Example 30],–,–,–,22600 nM,43 nM,70 nM,–
Cc1c(-c2[nH]c3ccc(C4CCC(N(CC#N)CC(=O)N(C)C)CC4)nc3c2C(C)C)cn2ncnc2c1C (stereo not drawn) [Example 459],2790 nM,4.3 nM,6.2 nM,–,–,–,–
"Cc1c(-c2[nH]c3ccc(C4CN(CCS(C)(=O)=O)C4)nc3c2C(C)C)cn2ncnc2c1C [Example 653, 6-(3-isopropyl-5-(1-(2-(methylsulfonyl)ethyl)azetidin-3-yl)-1H-pyrrolo[3,2-b]pyridin-2-yl)-7,8-dimethyl-[1,2,4]triazolo[1,5-a]pyridine]",13200 nM,13 nM,5.5 nM,–,–,–,–
Cc1c(-c2[nH]c3ccc(C4CCC(N5CCC6(COC6)C5)CC4)nc3c2C(C)C)cn2ncnc2c1C (stereo not drawn) [Example 1063],–,–,–,–,–,–,IC50 (human TLR9; [1]): 8060 nM; IC50 (human TLR8; [2]): 18 nM; IC50 (human TLR7; [3]): 10 nM
COc1cc(-c2[nH]c3ccc(C4CCC(N5CCC[C@H]5CO)CC4)nc3c2C(C)C)cn2ncnc12 (stereo partly drawn) [Example 173],–,–,–,578 nM,10 nM,2 nM,–
COc1cc(-c2[nH]c3ccc(C4CCC(NCCS(C)(=O)=O)C4)nc3c2C(C)C)cn2ncnc12 (stereo not drawn) [Example 709],> 50000 nM,> 3120 nM,2330 nM,–,–,–,–
COc1cc(-c2[nH]c3ccc(N4CC(NCC(=O)N(C)C)C4)nc3c2C(C)C)cn2ncnc12 [Example 27],–,–,–,> 50000 nM,> 3120 nM,> 3120 nM,–
"CNC1CCC(c2ccc3[nH]c(-c4cn5ncnc5c(C)c4C)c(C(C)C)c3n2)CC1 (single isomer, unassigned) [Example 367, 4-(2-(7,8-dimethyl-[1,2,4]triazolo[1,5-a]pyridin-6-yl)-3-isopropyl-1H-pyrrolo[3,2-b]pyridin-5-yl)-N-methylcyclohexanamine]",–,–,–,838 nM,3.5 nM,1.5 nM,–
Cc1c(-c2[nH]c3ccc(N4CCN(C(=O)CN(C)CC(C)C)CC4)nc3c2C(C)C)cn2ncnc2c1C [Example 875],–,–,–,–,–,–,IC50 (human TLR9; [1]): 40500 nM; IC50 (human TLR8; [2]): 3.2 nM; IC50 (human TLR7; [3]): 6.6 nM
CC(C)c1c(-c2cn(CCS(C)(=O)=O)c3ncccc23)[nH]c2ccc(C3CCC(NCC(=O)N(C)C)CC3)nc12 (stereo not drawn) [Example 261],–,–,–,381 nM,90 nM,262 nM,–
COc1cc(-c2[nH]c3cc(C)c(C4CCC(N(C)CC(C)(C)C)CC4)nc3c2C(C)C)cn2ncnc12 (stereo not drawn) [Example 334],–,–,–,2400 nM,127 nM,4.6 nM,–
Cc1c(-c2[nH]c3ccc(C4CCC(N5CCC6(CCOC6)C5)CC4)nc3c2C(C)C)cn2ncnc2c1C (stereo not drawn) [Example 1066],–,–,–,–,–,–,IC50 (human TLR9; [1]): 4290 nM; IC50 (human TLR8; [2]): 11 nM; IC50 (human TLR7; [3]): 9 nM
[2H]C([2H])([2H])N(CC(=O)N1CCN(c2ccc3[nH]c(-c4cn5ncnc5c(C)c4C)c(C(C)C)c3n2)[C@H](C)C1)C([2H])([2H])[2H] [Example 838],–,–,–,–,–,–,"IC50 (human TLR9; TLR9 IC50, HEK-Blue human TLR9 cells, ODN2006 5 nM): 9890 nM; IC50 (human TLR8; TLR8 IC50, HEK-Blue human TLR8 cells, R848 15.9 μM): 3.5 nM; IC50 (human TLR7; [3]): 0.6 nM"
CC(C)c1c(-c2cn(C)c3ncccc23)[nH]c2ccc(N3CC(NCC(=O)N(C)C)C3)nc12 [Example 34],–,–,–,1220 nM,6 nM,17 nM,–
COc1cc(-c2[nH]c3cc(C)c(C4CCC(N5CC6(COC6)C5)CC4)nc3c2C(C)C)cn2ncnc12 (stereo not drawn) [Example 317],–,–,–,3610 nM,94 nM,4.8 nM,–
